Values of other authors, collected in patent publication US6676951B1, “Host-guest processes and formulations for delivering bio-affecting compounds” (priority 1999, dated 2004).

Settings: C=O bond external to the ring

Structure (SMILES): O=C1O[C@H]([C@@H](O)CO)C(O)=C1O [ascorbic acid, L-ascorbic acid]
- pKa of the C=O external to the ring structure: 4.5
